Consider 22 molecules from patent publication US7977365B2 (priority 2006, dated 2011).

For data set [1], the system named is Lassa GP-pseudotyped-virus. As to the kind of experiment: microbe, parasite or virus in culture. It is filed as cell-based, Lassa fever virus. As to conditions: for EC50: Human immunodeficiency virus 1, read-out: Activity against Lassa GP-pseudotyped-virus EC50.
In data set [2] the test system is Lassa fever virus (Josiah strain). As to the kind of experiment: organism not typed. As to conditions: read-out: Activity vs. LFV EC50. It is filed as cell-based.
Data set [3] deals with LASV GP. The data set can be described thus: organism not typed. As to conditions: HEK-293T. The class given is cell-based.
Data set [4] can be described thus: in vitro. As to conditions: human.
The test system of data set [5] is Sabia GP. As to the kind of experiment: organism not typed. It is filed as cell-based. As to conditions: HEK-293T, 72 h, read-out: IC50 ± SEM, Sabia GP pseudotype.
Data set [6] has as its system Junín GP. The data set can be described thus: organism not typed. The class given is cell-based. As to conditions: HEK-293T, 72 h, read-out: IC50 ± SEM, Junín GP pseudotype.
Data set [7] concerns Tacaribe GP. The data set can be described thus: organism not typed. As to conditions: HEK-293T, 72 h, read-out: IC50 ± SEM, Tacaribe GP pseudotype. It is filed as cell-based.
The test system of data set [8] is envelope of the New World arenavirus Guanarito. The data set can be described thus: microbe, parasite or virus in culture. It is filed as cell-based. As to conditions: read-out: EC50, Guanarito envelope pseudotyped viral infection.
Data set [9] deals with Machupo GP. As to the kind of experiment: organism not typed. The class given is cell-based. As to conditions: HEK-293T, 72 h, read-out: IC50 ± SEM, Machupo GP pseudotype.
Data set [10] deals with Guanarito GP. The data set can be described thus: organism not typed. As to conditions: HEK-293T, 72 h, read-out: IC50 ± SEM, Guanarito GP pseudotype. It is filed as cell-based.
For data set [11], the system named is unselected TCRV. The class given is cell-based.
Data set [12] concerns Pichinde GP. As to the kind of experiment: organism not typed. The class given is cell-based. As to conditions: HEK-293T, 72 h, read-out: IC50 ± SEM, Pichinde (wt) GP pseudotype.
Data set [13] concerns envelope of the New World arenavirus Tacaribe. As to the kind of experiment: microbe, parasite or virus in culture. It is filed as cell-based. As to conditions: read-out: EC50, Tacaribe envelope pseudotyped viral infection.
For data set [14] the following is noted: at 50 μM.
For data set [15], the system named is LCMV GP. The data set can be described thus: organism not typed. It is filed as cell-based. As to conditions: HEK-293T, 72 h, read-out: IC50 ± SEM, LCMV (wt) GP pseudotype.
Data set [16] deals with VSVg. As to the kind of experiment: microbe, parasite or virus in culture. It is filed as cell-based, vesicular stomatitis virus. As to conditions: read-out: IC50 ± SEM, VSV envelope pseudotype.

Read-outs that look alike come from different tables or passages of the source.

One may read the EC50 as the concentration that produces a half-maximal response. On to `COc1ccc(-n2cnc3cc(NCc4ccc(Cl)cc4)ccc32)cc1` [Compound 600170, (4-chloro-benzyl)-[1-(4-methoxy-phenyl)-1H-benzimidazol-5-yl]-amine], for which, in data set [1], the specificity is reported as over 200 and the concentration for a half-maximal effect (EC50) worked out at 40 nM.

Take `COc1ccc(-n2cnc3cc(N(Cc4ccc(C(C)C)cc4)C(C)=O)ccc32)cc1` [Compound 600362]: in data set [1], the specificity worked out at 40 and the concentration giving a half-maximal response (EC50) amounted to 400 nM.

Consider `COc1ccc(-n2cnc3cc(NCc4cccc(OC)c4)ccc32)cc1` [Compound 600191, (3-methoxy-benzyl)-[1-(4-methoxy-phenyl)-1H-benzimidazol-5-yl]-amine], for which, in data set [1], the specificity is over 300 and the EC50 was 40 nM.

`CCOc1ccc(CN(c2ccc3c(c2)ncn3-c2ccccc2OC)S(=O)(=O)c2ccc(C)cc2)cc1` [Compound 600179, N-(4-ethoxy-benzyl)-N-[1-(2-methoxy-phenyl)-1H-benzimidazol-5-yl]-4-methylbenzenesulfonamide]: in data set [1], the specificity is listed as over 100 and the EC50 worked out at 110 nM.

As for `COc1ccc(CNc2ccc3c(c2)ncn3-c2ccccc2OC)cc1` [Compound 600190, (4-methoxy-benzyl)-[1-(2-methoxy-phenyl)-1H-benzimidazol-5-yl]-amine], in data set [1], the specificity is recorded as 3 and the EC50 worked out at 2000 nM.

Take `COc1ccc(CNc2ccc3c(c2)ncn3-c2ccccc2)cc1` [Compound 600196, (4-methoxy-benzyl)-(1-phenyl-1H-benzimidazol-5-yl)-amine]: in [1], the specificity is listed as over 400 and the half-maximal effective concentration (EC50) was 30 nM.

Take `CN(C)c1ccc(CNc2ccc3c(c2)ncn3-c2ccccc2)cc1` [Compound 600144, (4-dimethylamino-benzyl)-[1-phenyl-1H-benzimidazol-5-yl]-amine]: in data set [1], the specificity is recorded as over 1 and the concentration for a half-maximal effect (EC50) is 11000 nM.

Consider `CCOc1ccc(CNc2ccc3c(c2)ncn3-c2ccc(OC)cc2)cc1` [Compound 600147, (4-ethoxy-benzyl)-[1-(4-methoxy-phenyl)-1H-benzimidazol-5-yl]-amine], for which, in data set [1], the specificity is given as over 4000 and the EC50 was 3 nM.

As usually defined, the IC50 is the concentration that gives 50% inhibition. For the molecule `COc1ccc(CNc2ccc3c(c2)ncn3-c2ccc(OC)cc2)cc1` [Compound 600037, (4-methoxy-benzyl)-[1-(4-methoxy-phenyl)-1H-benzimidazol-5-yl]-amine], the concentration giving a half-maximal response (EC50) in [2] is under 100 nM. Besides, in data set [1], the specificity was 900 and the EC50 was found to be 16 nM. For the same molecule, the IC50 in data set [3] (read-out: average IC50 against LASV GP pseudotypes) came out at 16 nM.

As for `COc1ccc(-n2cnc3cc(NCc4ccc(OC)c(OC)c4)ccc32)cc1` [Compound 600172, (3,4-dimethoxy-benzyl)-[1-(4-methoxy-phenyl)-1H-benzimidazol-5-yl]-amine], in [1], the specificity is recorded as over 10 and the EC50 was 700 nM.

For `COc1ccccc1-n1cnc2cc(NCc3cccc(OC)c3OC)ccc21` [Compound 600192, (2,3-dimethoxy-benzyl)-[1-(2-methoxy-phenyl)-1H-benzimidazol-5-yl]-amine], in data set [1], the specificity entry is “none” and the concentration for a half-maximal effect (EC50) was determined as 5000 nM.

In the case of `COc1ccc(-n2cnc3cc(NCc4ccccc4OC)ccc32)cc1` [Compound 600146, (2-methoxy-benzyl)-[1-(4-methoxy-phenyl)-1H-benzimidazol-5-yl]-amine], in data set [1], the specificity was over 40 and the EC50 came to 300 nM.

Consider `COc1ccc(-n2cnc3cc(NCc4cccc5ccccc45)ccc32)cc1` [Compound 600149, [1-(4-methoxy-phenyl)-1H-benzimidazol-5-yl]-napthalen-1-ylmethyl-amine], for which, in data set [1], the specificity is reported as over 200 and the EC50 came out at 60 nM.

Turning to `COc1ccccc1-n1cnc2cc(NCc3ccc(N(C)C)cc3)ccc21` [Compound 600137, (4-dimethylamino-benzyl)-[1-(2-methoxy-phenyl)-1H-benzimidazol-5-yl]-amine], the concentration for a half-maximal effect (EC50) in data set [1] was over 12000 nM.

In the case of `Brc1ccc(CNc2ccc3c(c2)ncn3-c2ccccc2)cc1` [Compound 600173, (4-bromo-benzyl)-(1-phenyl-1H-benzimidazol-5-yl)-amine], in data set [1], the specificity is recorded as over 30 and the EC50 came to 400 nM.

As for `COc1ccc(-n2cnc3cc(N(Cc4ccc(C(C)C)cc4)S(=O)(=O)c4ccc(C)cc4)ccc32)cc1` [Compound 600363, N-(4-isopropyl-benzyl)-N-[1-(4-methoxy-phenyl)-1H-benzimidazol-5-yl]-4-methylbenzenesulfonamide], in [1], the specificity is listed as 100 and the EC50 is 200 nM.

With `COc1ccc(-n2cnc3cc(NCc4cccc(OC)c4OC)ccc32)cc1` [Compound 600189, (2,3-dimethoxy-benzyl)-[1-(4-methoxy-phenyl)-1H-benzimidazol-5-yl]-amine], in [1], the specificity is on record as 100 and the EC50 amounted to 100 nM.

For `COc1ccc(-n2cnc3cc(NCc4ccc(C)cc4)ccc32)cc1` [Compound 600188, [1-(4-methoxy-phenyl)-1H-benzimidazol-5-yl]-(4-methyl-benzyl)-amine], in data set [1], the specificity is listed as over 4000 and the EC50 came to 3 nM.

Consider `COc1ccc(-n2cnc3cc(NCc4ccc(C(C)C)cc4)ccc32)cc1` [Compound 600193, (4-isopropyl-benzyl)-[1-(4-methoxy-phenyl)-1H-benzimidazol-5-yl]-amine], for which the CC50 in data set [4] worked out at 48000 nM. For the same molecule, the IC50 came out at 12 ± 3 nM in data set [5]; 0.2 ± 0.03 nM in data set [6]; 4 ± 2 nM in data set [7]; 2.3 ± 1.3 nM in [9]; 0.34 ± 0.07 nM in data set [10]; 2600 ± 500 nM in data set [12]. The IC50 in data set [15] was 31000 ± 4000 nM; in data set [3] (72 h, read-out: IC50 ± SEM, Lassa (LASV wt) GP pseudotype) it was 1.6 ± 0.3 nM; in data set [16] (Vesicular stomatitis virus, HEK-293T) it was about 30000 nM; in data set [16], 29000 ± 2500 nM. The concentration for a half-maximal effect (EC50) in data set [2] was under 100 nM; in data set [8] it was under 1 nM; in [13] it was 4 nM; in data set [1], 1.1 nM. For the same molecule, in data set [11], the “reduction of TCRV titer” value is given as 1000 fold. Also, the specificity in data set [1] was 13,000. Moreover, the solubility observation result in [14] is “visual evidence of insolubility”.

Regarding `COc1ccc(CNc2ccc3c(c2)ncn3-c2ccc(C)cc2)cc1` [Compound 600169, (4-methoxy-benzyl)-(1-p-tolyl-1H-benzimidazol-5-yl)-amine], in data set [1], the specificity is over 500 and the EC50 worked out at 20 nM.

In the case of `COc1ccc(-n2cnc3cc(NCc4ccccc4O)ccc32)cc1` [Compound 600153, 2-[[1-(4-methoxy-phenyl)-1H-benzimidazol-5-ylamino]-methyl]-phenol], in data set [1], the specificity is listed as over 60 and the EC50 stood at 180 nM.

With `COc1ccc(-n2cnc3cc(NCc4ccc(Br)cc4)ccc32)cc1` [Compound 600145, (4-bromo-benzyl)-[1-(4-methoxy-phenyl)-1H-benzimidazol-5-yl]-amine], in data set [1], the specificity stood at 300 and the EC50 was 40 nM.
